ChEMBL document CHEMBL2157979, “Discovery of new non-steroidal FXR ligands via a virtual screening workflow based on Phase shape and induced fit docking” (Bioorg Med Chem Lett, 2012)

How the values were obtained:
Bile acid receptor [1] = biological target: T1, Bile acid receptor (Homo sapiens, UniProt Q96RI1); assay: Agonist activity at FXR; type: functional
T1 sequence (Q96RI1 whole entry): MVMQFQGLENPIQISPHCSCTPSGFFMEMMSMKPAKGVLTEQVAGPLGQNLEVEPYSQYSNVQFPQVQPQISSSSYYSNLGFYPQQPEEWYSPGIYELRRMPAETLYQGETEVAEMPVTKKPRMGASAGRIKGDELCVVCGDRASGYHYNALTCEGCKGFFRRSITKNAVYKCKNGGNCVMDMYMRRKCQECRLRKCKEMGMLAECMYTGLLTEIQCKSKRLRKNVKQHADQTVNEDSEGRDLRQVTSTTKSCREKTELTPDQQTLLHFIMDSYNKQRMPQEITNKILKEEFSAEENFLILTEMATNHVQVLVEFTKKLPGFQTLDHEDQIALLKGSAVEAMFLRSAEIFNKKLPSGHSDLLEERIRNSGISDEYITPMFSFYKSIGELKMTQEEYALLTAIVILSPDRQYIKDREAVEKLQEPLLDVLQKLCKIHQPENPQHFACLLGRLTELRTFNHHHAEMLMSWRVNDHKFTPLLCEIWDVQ

[2] = biological target: T2, Bile acid receptor (Homo sapiens) (UniProt Q96RI1); assay: Agonist activity at GST-tagged FXRalpha ligand binding domain assessed as biotinylated SRC1 binding at 20 uM after 30 mins by HTRF assay
T2 sequence (whole entry): T1 sequence (Q96RI1 whole entry)

[3] = biological target: T2, Bile acid receptor (Homo sapiens); assay: Antagonist activity at GST-tagged FXRalpha ligand binding domain assessed as inhibition of CDCA-induced biotinylated SRC1 binding at 20 uM after 30 mins by HTRF assay
[4] = biological target: T2, Bile acid receptor (Homo sapiens); assay: (§1) Antagonist activity at GST-tagged FXRalpha ligand binding domain assessed as inhibition of CDCA-induced biotinylated SRC1 binding after 30 mins by HTRF assay
Bile acid receptor [5] = biological target: T1, Bile acid receptor; assay: as §1
[6] = biological target: T2, Bile acid receptor (Homo sapiens); assay: (§2) Agonist activity at GST-tagged FXRalpha ligand binding domain assessed as biotinylated SRC1 binding after 30 mins by HTRF assay
Bile acid receptor [7] = biological target: T1, Bile acid receptor; assay: as §2
[8] = biological target: T2, Bile acid receptor (Homo sapiens); assay: (§3) Agonist activity at FXRalpha expressed in HEK293 cells assessed as increase in transcriptional activity after 18 hrs by luciferase reporter gene assay; type: functional, cell-based
Bile acid receptor [9] = biological target: T1, Bile acid receptor; assay: as §3; type: functional, cell-based

| SMILES | EC50 (Bile acid receptor [1]) | Activity [2] | inhibition [3] | inhibition [4] | IC50 (Bile acid receptor [5]) | Activity [6] | EC50 (Bile acid receptor [7]) | Activity [8] | EC50 (Bile acid receptor [9]) |
| --- | --- | --- | --- | --- | --- | --- | --- | --- | --- |
| Cc1cc(OCc2c(-c3c(Cl)cncc3Cl)noc2C(C)C)ccc1-c1ccc2c(c1)c(C(=O)O)cn2C | 0.094 µM | – | – | – | – | – | – | – | – |
| C[C@@H]1CCc2c(sc3nc(CN4CCOCC4)nc(N[C@H](c4ccccc4)c4ccccn4)c23)C1 | – | < 5% | 57.1% | Dose-dependent effect | 8.23 µM | – | – | – | – |
| COC(=O)/C=C/c1cccc(N(Cc2ccc(/C=C/c3ccccc3)cc2)C(=O)C2CCCCC2)c1 | 0.036 µM | – | – | – | – | – | – | – | – |

The remaining lines, values ahead:

| EC50 (Bile acid receptor [1]) | Activity [2] | inhibition [3] | inhibition [4] | IC50 (Bile acid receptor [5]) | Activity [6] | EC50 (Bile acid receptor [7]) | Activity [8] | EC50 (Bile acid receptor [9]) | SMILES |
| --- | --- | --- | --- | --- | --- | --- | --- | --- | --- |
| – | 52.5% | 7.28% | – | – | Dose-dependent effect | 12.9 µM | Dose-dependent effect | 2.6 µM | NC(=O)c1ccc(NC(=O)[C@@H](Cc2ccccc2)NC(=O)c2ccc(Cl)cc2)cc1 |
| – | < 5% | 63.3% | Dose-dependent effect | 3.77 µM | – | – | – | – | O=C(COC(=O)c1ccc(O)cc1)Nc1sc2c(c1C(=O)c1ccccc1)CCCC2 |
